Reference: ChEMBL document CHEMBL1126334, “Thromboxane receptor antagonist BMS-180291: A new pre-clinical lead” (Bioorg Med Chem Lett, 1992)
Calls of active or inactive are those of the source. The calls are words filed in the database; no cut-off is given here.

How the values were obtained:
[1] = molecular target: T1, Thromboxane-A synthase (Homo sapiens) (UniProt P24557); assay: Compound was tested for activity against Thromboxane A2 synthase in human PRP; NI=No inhibition
T1 sequence (whole entry): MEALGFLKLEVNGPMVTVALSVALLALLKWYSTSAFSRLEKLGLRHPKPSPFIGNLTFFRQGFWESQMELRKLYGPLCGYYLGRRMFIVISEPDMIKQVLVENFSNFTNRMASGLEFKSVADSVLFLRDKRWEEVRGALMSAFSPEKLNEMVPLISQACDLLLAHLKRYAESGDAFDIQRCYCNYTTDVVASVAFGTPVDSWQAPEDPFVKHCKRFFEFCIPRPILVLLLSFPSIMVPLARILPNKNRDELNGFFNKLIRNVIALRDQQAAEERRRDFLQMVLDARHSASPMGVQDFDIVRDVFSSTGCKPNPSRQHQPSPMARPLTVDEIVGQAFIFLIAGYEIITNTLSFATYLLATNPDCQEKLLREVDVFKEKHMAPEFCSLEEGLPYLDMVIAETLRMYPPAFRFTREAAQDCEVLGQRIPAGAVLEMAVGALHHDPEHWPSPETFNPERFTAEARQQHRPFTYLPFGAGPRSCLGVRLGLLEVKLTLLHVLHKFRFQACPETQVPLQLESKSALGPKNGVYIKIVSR

[2] = organism: Homo sapiens; assay: Compound was tested at 1 mM for the inhibition of ADP-induced (20 uM) platelet aggregation in human platelet-rich plasma; NI=No inhibition; format: functional, organism-based
[3] = system: Mus musculus; assay: Time duration taken by the compound (0.2 mg/kg, po) to provide extended protection from U46,619 (2 mg/kg, iv) induced death; format: functional
[4] = system: Monkey; assay: Oral dose of compound required to inhibit the U46,619-induced platelet aggregation in ex vivo African green monkeys; format: functional, Cercopithecidae
[5] = organism: Rattus norvegicus; assay: Compound was tested for the inhibition of U46,619-induced contractions in rat aortas; format: functional; details: Aorta
[6] = Oral bioavailability in African green monkeys; 20-25; format: ADME, organism-based; details: chlorocebus aethiops, in vivo, read-out: Bioavailabiility
[7] = organism: Bos taurus; assay: Compound was tested at 1 nM for the inhibition of […] in bovine seminal vesicle microsomes; NI=No inhibition; format: functional

With `CCCCCNC(=O)c1coc([C@H]2[C@@H](Cc3ccccc3CCC(=O)O)[C@@H]3CC[C@H]2O3)n1` [IFETROBAN] the Activity [1] was “inactive”, the Activity [2] was “inactive” and the T50 [3] was 14 h. For the same compound, the Dose [4] was 3 mg/kg, the Kb [5] was 0.56 nM and the bioavailability [6] was 20%. The Activity [7] was “inactive”.
